Test results: ChEMBL document CHEMBL1201862, “PubChem BioAssay data set” (2004)
The source made the active and inactive calls.

Columns and labels:
[1] = target: Protein-tyrosine kinase 2-beta (Homo sapiens, UniProt Q14289);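 also: potency of inhibitors of PYK2 kinase phosphorylation of poly-GT substrate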
[2] = Luminescence Cell-Based Dose Response to Identify Activators of 5'UTR Stem-Loop Driven Prion Protein mRNA Translation in H4-C Neuroglioblastoma Cells. [Related pubchem assays: 1829 (Project Summary), 1814 (Primary HTS)]; assay type: functional
[3] = Luminescence Cell-Based Dose Confirmation HTS to Identify Activators of 5'UTR Stem-Loop Driven Alpha-Synuclein mRNA Translation in H4 Neuroglioblastoma Cells. [Related pubchem assays: 1829 (Project Summary), 1814 (Primary HTS)]; assay type: functional
H4 = assay: Luminescence Cell-Based Dose Response HTS to Identify Activators of 5'UTR Stem-Loop Driven Prion Protein mRNA Translation in H4 Neuroglioblastoma Cells. [Related pubchem assays: 1829 (Project Summary), 1814 (Primary HTS)]; assay type: functional; settings: Homo sapiens
[4] = Luminescence Cell-Based Dose Confirmation to Identify Activators of 5'UTR Stem-Loop Driven Alpha-Synuclein mRNA Translation in H4 Neuroglioblastoma Cells. [Related pubchem assays: 1829 (Project Summary), 1814 (Primary HTS)]; assay type: functional
[5] = Luminescence Cell-Based Dose Response to Identify Activators of Luciferase Translation or Activity in H4-C Neuroglioblastoma Cells. [Related pubchem assays: 1829 (Project Summary), 1814 (Primary HTS)]; assay type: functional
[6] = Luminescence Cell-Based Dose Response HTS to Identify Activators of Luciferase Translation or Activity in H4 […] Cells. [Related pubchem assays: 1829 (Project Summary), 1814 (Primary HTS)]; assay type: functional
[7] = cytotoxicity in HEK-293T cells, dose response, cytotoxicity control for TCR NF-kB inhibitor project, luminescence, T-cell screen hits (AID 489026); assay type: functional, cell-based;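 also: cells exposed to compound about 14 hours before the viability readout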
Beta-galactosidase = Beta-galactosidase (Escherichia coli, UniProt Q8VNN2); assay: beta-galactosidase enzyme inhibitors and activators, dose response, artefact control for CCR6 antagonist project, biochemical, E. coli enzyme, set 3 (AID 504712); assay type: functional
INS1 = assay: beta cell apoptosis inhibitors, cytokine rescue, dose response, luminescence, retest (AID 449756); assay type: functional, cell-based; settings: Rattus norvegicus;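 also: cell death triggered by IL-1 beta plus TNF-alpha plus IFN-gamma mixture; protective hits raise ATP signal compared with cytokine alone wells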
[8] = target: Heat shock protein HSP 90-alpha (Homo sapiens, UniProt P07900); assay type: functional, organism-based
Kallikrein-7 = Kallikrein-7 (Homo sapiens, UniProt P49862); assay: Fluorescence Intensity-based biochemical primary high throughput dose response assay to identify activators of kallikrein-7 (K7) zymogen.
Cytochrome P450 3A4 = Cytochrome P450 3A4 (Homo sapiens, UniProt P08684); settings: Potency;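 also: confirmatory qHTS run detecting inhibitors and substrates of CYP3A4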
[9] = target: Melanin-concentrating hormone receptor 1 (Homo sapiens, UniProt Q99705); assay: Fluorescence-based counterscreen for antagonists of the G-protein coupled receptor 7 (GPR7): cell-based high throughput dose response assay to identify antagonists of the melanin-concentrating hormone receptor 1 (MCHR1).; assay type: functional
[10] = target: T1, Neuropeptides B/W receptor type 1 (Homo sapiens, UniProt P48145); assay: Fluorescence-based dose response cell-based high throughput screening assay to identify antagonists of the G-protein coupled receptor 7 (GPR7). [Related pubchem assays: 1952 (Screening assay (GPR7 antagonists).), 1880 (Summary AID.)]; assay type: functional
T1 sequence (P48145 whole entry): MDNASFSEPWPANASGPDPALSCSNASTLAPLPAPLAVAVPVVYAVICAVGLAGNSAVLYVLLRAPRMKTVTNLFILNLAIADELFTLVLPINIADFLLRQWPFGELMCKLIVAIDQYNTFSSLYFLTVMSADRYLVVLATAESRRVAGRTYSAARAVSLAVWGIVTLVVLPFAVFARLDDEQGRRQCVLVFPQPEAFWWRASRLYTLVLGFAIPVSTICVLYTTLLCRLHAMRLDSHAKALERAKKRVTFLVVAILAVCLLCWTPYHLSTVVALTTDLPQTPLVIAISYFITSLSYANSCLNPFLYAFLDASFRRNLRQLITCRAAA

[11] = target: T2, RNA-binding protein pos-1 (Caenorhabditis elegans, UniProt G5EF15); assay: inhibitors of POS-1/mex-3 RNA binding, dose response, biochemical, fluorescence polarization (AID 1964);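 also: purified POS-1 fused to maltose binding protein made in E. coli; potency of compounds blocking POS-1 binding to fluorescent RNA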
T2 sequence (G5EF15 whole entry): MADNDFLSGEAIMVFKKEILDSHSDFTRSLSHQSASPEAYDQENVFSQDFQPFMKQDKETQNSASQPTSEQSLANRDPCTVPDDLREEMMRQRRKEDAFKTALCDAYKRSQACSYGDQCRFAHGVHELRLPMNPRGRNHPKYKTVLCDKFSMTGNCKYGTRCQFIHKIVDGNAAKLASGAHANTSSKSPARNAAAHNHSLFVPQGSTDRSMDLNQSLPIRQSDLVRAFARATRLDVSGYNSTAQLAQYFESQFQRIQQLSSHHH

[12] = target: T3, Zinc finger protein mex-5 (Caenorhabditis elegans, UniProt Q9XUB2); assay: MEX-5/TCR-2 RNA interaction inhibitors, dose response, biochemical, C. elegans, fluorescence polarization (AID 1960)
T3 sequence (Q9XUB2 whole entry): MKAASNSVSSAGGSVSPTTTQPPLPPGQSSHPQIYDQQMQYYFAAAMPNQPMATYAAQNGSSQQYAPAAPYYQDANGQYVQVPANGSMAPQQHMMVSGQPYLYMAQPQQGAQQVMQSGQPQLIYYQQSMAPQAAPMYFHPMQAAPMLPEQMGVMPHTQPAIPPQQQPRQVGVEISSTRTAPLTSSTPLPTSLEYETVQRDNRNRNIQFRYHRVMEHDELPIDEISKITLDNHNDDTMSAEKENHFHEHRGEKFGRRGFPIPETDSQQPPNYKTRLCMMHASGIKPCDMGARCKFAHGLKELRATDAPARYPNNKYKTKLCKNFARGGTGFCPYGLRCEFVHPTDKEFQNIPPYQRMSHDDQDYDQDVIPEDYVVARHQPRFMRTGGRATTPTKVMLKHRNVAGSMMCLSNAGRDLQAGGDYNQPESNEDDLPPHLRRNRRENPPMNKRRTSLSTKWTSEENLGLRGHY

[13] = inhibitors of Vif binding to APOBEC3G peptide, primary screen, biochemical, TR-FRET, GST-Vif 1-94, biotin-A3G peptide, dose response retest (AID 1117319); assay type: functional;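 also: TR-FRET signal of purified GST-Vif binding a biotinylated A3G peptide; inhibitors lower the FRET signal by blocking Vif and A3G binding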
[14] = THP-1 cell cytotoxicity, dose response, cytotoxicity control for Vif-APOBEC3G degradation inhibitor project, THP-1 cells (AID 1117359); assay type: functional; settings: Human immunodeficiency virus 1, THP-1
Cytochrome P450 2C9 = Cytochrome P450 2C9 (Homo sapiens, UniProt P11712)
Vero = Vero cell cytotoxicity, cytotoxicity control for flavivirus capping enzyme inhibitors (AID 588742); assay type: functional; settings: Chlorocebus sabaeus
[15] = target: DNA dC->dU-editing enzyme APOBEC-3G (Homo sapiens, UniProt Q9HC16); assay: Dose Response confirmation of small molecule APOBEC3G DNA Deaminase Inhibitors via a fluorescence-based single-stranded DNA deaminase assay. [Related pubchem assays (depositor defined):AID493012, AID493028]; assay type: functional
[16] = Luminescence Cell-Based Dose Response HTS to Identify Inhibitors of 5'UTR Stem-Loop Driven Prion Protein mRNA Translation in H4 Neuroglioblastoma Cells. [Related pubchem assays: 1827 (Project Summary), 1813 (Primary HTS)]; assay type: functional
[17] = inhibitors of firefly luciferase expression or activity, dose response, H4 neuroglioma cells, luminescence (AID 1990); assay type: functional, cell-based
[18] = inhibitors of SNCA 5'UTR-driven reporter translation, confirmation, H4 neuroglioma cells, luminescence (AID 1988); assay type: functional, cell-based
[19] = HEK293 Cytotoxicity Assay Measured in Cell-Based System Using Plate Reader - 7071-01_Inhibitor_Dose_CherryPick_Activity_Set2.; assay type: functional
HEK293 = assay: HEK293T cell cytotoxicity, dose response, cytotoxicity control, ATP luminescence, cherry-pick samples (AID 687005); assay type: functional, cell-based; settings: Homo sapiens;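 also: cells exposed to compound for 48 hours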

Sequence of Cytochrome P450 3A4 (P08684 whole entry): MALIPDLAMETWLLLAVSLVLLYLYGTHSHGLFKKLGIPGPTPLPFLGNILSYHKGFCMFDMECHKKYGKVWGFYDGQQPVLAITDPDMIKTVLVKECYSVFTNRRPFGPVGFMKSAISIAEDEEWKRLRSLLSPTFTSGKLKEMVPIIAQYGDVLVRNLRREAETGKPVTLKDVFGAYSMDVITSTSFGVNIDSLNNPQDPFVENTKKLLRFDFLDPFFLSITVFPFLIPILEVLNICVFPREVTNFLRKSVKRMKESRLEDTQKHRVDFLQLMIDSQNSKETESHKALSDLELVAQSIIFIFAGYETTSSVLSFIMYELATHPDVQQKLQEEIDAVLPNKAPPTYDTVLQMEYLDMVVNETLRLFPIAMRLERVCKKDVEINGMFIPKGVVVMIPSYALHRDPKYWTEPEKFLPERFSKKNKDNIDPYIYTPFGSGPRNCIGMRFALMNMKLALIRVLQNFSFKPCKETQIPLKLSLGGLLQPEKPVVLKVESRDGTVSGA
Sequence of Melanin-concentrating hormone receptor 1 (Q99705 whole entry): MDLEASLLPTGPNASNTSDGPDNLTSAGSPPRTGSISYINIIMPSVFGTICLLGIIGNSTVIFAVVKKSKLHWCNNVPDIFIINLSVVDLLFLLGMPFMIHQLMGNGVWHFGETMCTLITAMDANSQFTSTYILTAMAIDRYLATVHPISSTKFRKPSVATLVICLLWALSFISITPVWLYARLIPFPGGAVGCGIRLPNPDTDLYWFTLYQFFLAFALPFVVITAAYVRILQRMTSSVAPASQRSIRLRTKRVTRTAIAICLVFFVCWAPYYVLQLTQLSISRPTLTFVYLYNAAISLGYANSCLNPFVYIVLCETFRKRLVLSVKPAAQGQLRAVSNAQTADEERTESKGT
Sequence of Kallikrein-7 (P49862 whole entry): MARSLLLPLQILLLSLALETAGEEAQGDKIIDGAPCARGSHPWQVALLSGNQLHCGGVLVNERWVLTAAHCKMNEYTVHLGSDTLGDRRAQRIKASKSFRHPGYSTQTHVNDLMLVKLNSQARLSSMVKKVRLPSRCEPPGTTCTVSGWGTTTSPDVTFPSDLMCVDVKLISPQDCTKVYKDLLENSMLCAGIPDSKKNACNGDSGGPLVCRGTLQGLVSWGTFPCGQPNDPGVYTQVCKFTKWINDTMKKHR
Sequence of Protein-tyrosine kinase 2-beta (Q14289 whole entry): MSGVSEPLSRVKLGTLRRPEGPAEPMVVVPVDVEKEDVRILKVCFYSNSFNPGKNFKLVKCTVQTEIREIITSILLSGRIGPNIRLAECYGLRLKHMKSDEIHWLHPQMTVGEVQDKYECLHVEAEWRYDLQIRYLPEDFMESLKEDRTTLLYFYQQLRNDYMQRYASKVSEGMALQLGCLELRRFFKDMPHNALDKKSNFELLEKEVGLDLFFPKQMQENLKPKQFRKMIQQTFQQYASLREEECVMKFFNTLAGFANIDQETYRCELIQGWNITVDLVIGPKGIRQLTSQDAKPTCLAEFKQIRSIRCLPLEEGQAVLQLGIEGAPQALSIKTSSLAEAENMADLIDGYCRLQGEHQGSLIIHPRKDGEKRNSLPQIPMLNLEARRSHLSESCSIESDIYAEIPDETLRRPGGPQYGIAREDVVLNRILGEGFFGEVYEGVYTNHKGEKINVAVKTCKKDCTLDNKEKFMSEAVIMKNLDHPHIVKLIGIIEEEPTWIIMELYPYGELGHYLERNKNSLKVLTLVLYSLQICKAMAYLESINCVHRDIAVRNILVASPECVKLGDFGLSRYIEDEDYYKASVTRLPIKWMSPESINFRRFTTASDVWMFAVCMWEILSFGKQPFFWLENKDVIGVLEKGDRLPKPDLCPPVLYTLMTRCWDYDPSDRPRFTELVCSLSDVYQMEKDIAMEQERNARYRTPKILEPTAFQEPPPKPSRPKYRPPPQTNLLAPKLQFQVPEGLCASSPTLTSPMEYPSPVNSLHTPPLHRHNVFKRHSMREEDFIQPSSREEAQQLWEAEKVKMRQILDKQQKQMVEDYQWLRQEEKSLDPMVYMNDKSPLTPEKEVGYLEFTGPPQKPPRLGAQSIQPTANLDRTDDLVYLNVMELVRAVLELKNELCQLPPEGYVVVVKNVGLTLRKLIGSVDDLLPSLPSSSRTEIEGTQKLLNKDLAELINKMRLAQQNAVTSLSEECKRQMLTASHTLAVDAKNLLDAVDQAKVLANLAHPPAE
Sequence of DNA dC->dU-editing enzyme APOBEC-3G (Q9HC16 whole entry): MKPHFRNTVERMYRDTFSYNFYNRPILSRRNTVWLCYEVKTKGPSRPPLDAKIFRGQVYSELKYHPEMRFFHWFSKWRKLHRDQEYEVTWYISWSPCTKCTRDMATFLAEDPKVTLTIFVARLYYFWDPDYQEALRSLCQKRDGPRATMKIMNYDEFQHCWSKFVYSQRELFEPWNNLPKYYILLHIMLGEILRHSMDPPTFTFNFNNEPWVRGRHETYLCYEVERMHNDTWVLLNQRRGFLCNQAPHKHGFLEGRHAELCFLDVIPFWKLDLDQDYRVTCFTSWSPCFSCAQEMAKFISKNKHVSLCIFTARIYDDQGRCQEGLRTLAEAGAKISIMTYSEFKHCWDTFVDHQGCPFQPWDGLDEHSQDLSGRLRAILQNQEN
Sequence of Beta-galactosidase (Q8VNN2 whole entry): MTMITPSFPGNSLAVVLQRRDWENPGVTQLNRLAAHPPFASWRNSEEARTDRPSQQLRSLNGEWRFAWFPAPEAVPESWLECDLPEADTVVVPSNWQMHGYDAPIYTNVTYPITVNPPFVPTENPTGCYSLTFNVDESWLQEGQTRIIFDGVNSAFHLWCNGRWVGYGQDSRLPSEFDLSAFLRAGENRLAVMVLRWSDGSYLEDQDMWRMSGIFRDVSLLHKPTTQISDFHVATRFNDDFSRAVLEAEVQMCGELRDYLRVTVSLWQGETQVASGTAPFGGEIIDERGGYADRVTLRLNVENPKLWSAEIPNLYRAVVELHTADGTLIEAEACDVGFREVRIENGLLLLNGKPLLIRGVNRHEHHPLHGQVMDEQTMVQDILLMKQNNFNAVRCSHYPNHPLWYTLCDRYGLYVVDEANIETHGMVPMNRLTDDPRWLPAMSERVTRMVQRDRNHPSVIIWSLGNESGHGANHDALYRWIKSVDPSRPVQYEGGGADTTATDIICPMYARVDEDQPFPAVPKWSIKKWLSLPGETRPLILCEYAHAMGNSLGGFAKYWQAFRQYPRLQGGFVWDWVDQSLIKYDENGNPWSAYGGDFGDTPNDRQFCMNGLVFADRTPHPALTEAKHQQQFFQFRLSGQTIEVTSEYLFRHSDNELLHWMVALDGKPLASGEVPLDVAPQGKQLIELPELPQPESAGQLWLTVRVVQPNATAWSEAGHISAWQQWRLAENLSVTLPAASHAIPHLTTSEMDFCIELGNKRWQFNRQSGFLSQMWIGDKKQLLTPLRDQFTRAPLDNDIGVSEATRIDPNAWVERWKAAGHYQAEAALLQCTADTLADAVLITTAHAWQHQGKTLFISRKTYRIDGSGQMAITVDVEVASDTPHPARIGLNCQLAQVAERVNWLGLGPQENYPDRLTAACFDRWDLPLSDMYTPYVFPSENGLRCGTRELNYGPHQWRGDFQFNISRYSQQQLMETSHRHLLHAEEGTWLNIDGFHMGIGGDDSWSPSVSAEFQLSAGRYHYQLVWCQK
Sequence of Cytochrome P450 2C9 (P11712 whole entry): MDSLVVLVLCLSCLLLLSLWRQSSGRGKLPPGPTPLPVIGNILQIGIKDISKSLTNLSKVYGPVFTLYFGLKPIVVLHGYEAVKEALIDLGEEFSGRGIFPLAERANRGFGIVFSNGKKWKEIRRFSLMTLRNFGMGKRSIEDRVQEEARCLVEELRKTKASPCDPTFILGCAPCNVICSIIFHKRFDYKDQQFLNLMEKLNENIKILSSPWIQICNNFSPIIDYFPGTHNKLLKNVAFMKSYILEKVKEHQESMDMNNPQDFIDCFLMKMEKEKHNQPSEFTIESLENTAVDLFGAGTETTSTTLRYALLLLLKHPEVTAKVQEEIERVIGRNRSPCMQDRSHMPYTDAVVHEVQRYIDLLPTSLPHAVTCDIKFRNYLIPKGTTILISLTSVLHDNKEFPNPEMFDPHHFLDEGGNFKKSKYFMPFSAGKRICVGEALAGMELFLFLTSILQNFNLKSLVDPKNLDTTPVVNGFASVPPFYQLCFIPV

N#CCSc1nc(Nc2ccc3c(c2)OCO3)c2ccccc2n1
IC50 [1]: > 69.5 µM (not active)

CCc1cc2c(O)c(-c3ccon3)c(=N)oc2cc1OC
EC50 [2]: > 12 µM (not active)
EC50 [3]: 7.6 µM (active)
EC50 (H4): 31.8 µM (active)
EC50 [4]: 0.591 µM (active)
EC50 [5]: 1.5 µM (active)
EC50 [6]: 6.58 µM (active)

Cc1ccc(O)c(N=Nc2nccs2)c1
IC50 [7]: > 80 µM (inactive)
IC50 (Beta-galactosidase): > 66.6 µM (inactive)
AC50 (INS1): 1.15 µM (active)
AC50 [8]: 2.1 µM (active)

Cc1ccccc1-n1c2nc(=O)n(C)c(=O)c-2cc2ccccc21
EC50 (Kallikrein-7): 85.3 µM (inactive)

COc1ccc(-c2oc3cc(O[C@@H]4OC(CO)C(O)C(O)C4O)c(OC)c(O)c3c(=O)c2OC)cc1O (some centres undefined)
AC50 (Cytochrome P450 3A4): 25.1 µM (inconclusive)

CCOC(=O)CSc1nnc(-c2ccc(S(=O)(=O)NCc3cccs3)cc2)o1
IC50 [9]: > 43.8 µM (not active)
IC50 [10]: > 43.8 µM (not active)

CCN1CCN(Cc2c(O)ccc3c2O/C(=C\c2ccc(C)cc2)C3=O)CC1
EC50 [11]: 38.9 µM (active)
EC50 (Kallikrein-7): 23.9 µM (inactive)
EC50 [12]: 111 µM (active)

Cc1ccc(CC(NC(=O)c2ccccc2)C(=O)NC(C)C(=O)O)cc1 (centres undefined)
IC50 [13]: > 100 µM (active)

CC(C)C1Oc2ccccc2C(=O)N(CC(=O)c2ccc3c(c2)OCCO3)C1=O (centres undefined)
EC50 [2]: 0.33 µM (active)
EC50 [3]: 0.131 µM (active)
EC50 (H4): < 0.1 µM (active)
EC50 [4]: 0.425 µM (active)
EC50 [5]: 0.447 µM (active)
EC50 [6]: < 0.1 µM (active)

O=[N+]([O-])c1ccc(CNc2ccc(F)cc2)s1
IC50 [13]: > 100 µM (active)
CC50 [14]: > 40 µM (active)

Cc1cc(C)cc(N2C(=O)CC(Sc3nnnn3-c3ccccc3)C2=O)c1 (centres undefined)
AC50 (Cytochrome P450 2C9): inconclusive
IC50 (Beta-galactosidase): > 66.6 µM (inactive)

CNc1sc(C(=O)c2cccs2)c(N)c1-c1nc2ccccc2s1
IC50 [13]: > 100 µM (active)
CC50 [14]: 19.1 µM (active)
CC50 (Vero): > 40 µM (active)

O=[N+]([O-])c1ccc(N2CCN(Cc3ccccc3)CC2)nc1
IC50 [9]: 22.8 µM (not active)
IC50 [10]: 33.4 µM (not active)

CC(Sc1ccc2nnc(-c3ccc(F)cc3)n2n1)C(=O)O (centres undefined)
IC50 [15]: 21 µM (active)

CCOC(=O)C1=C(c2ccccc2)OC(N)=C(C#N)C1c1cccs1 (centres undefined)
IC50 [1]: > 69.5 µM (not active)

C=C1C(=O)O[C@@H]2C3OC3(C)CC/C=C(\C)CC[C@@H]12 (some centres undefined)
AC50 (Cytochrome P450 3A4): 31.6 µM (inconclusive)

O=C(c1ccc2c(c1)OCO2)N(CC1CCCO1)C1(C(=O)NC2CCCC2)CCCCC1 (centres undefined)
IC50 [9]: > 43.8 µM (not active)
IC50 [10]: > 43.8 µM (not active)

O=C(/C=C/c1cnc2ccccc2n1)NC12CC3CC(CC(C3)C1)C2
EC50 [2]: 0.434 µM (active)
EC50 (H4): 0.921 µM (active)
EC50 [4]: 0.62 µM (active)
EC50 [5]: 0.32 µM (active)
EC50 [6]: < 0.1 µM (active)

CC1(C)CC(=O)c2cnc(N3CCc4ccccc4C3)nc2C1
EC50 [2]: 0.284 µM (active)
EC50 [4]: 0.283 µM (active)
EC50 [5]: 0.268 µM (active)
EC50 [6]: < 0.1 µM (inconclusive)

COc1cc2c(cc1OC)-c1c(OC)c(OC)c(C=O)c3c1[C@H](C2)N(C)CC3
AC50 (Cytochrome P450 3A4): 7.94 µM (inconclusive)

CCCN(CCC)CCOc1cc(C)ccc1C(C)C
EC50 [16]: > 120 µM (not active)
IC50 [9]: 6.6 µM (active)
IC50 [10]: 10.9 µM (not active)
EC50 [17]: > 120 µM (not active)
EC50 [18]: > 120 µM (not active)

CC(=O)c1ccc(NC(=O)c2ccc(NC(=O)c3ccco3)cc2)cc1
IC50 [15]: 25.3 µM (active)

CCN(CC)CCCn1c(-c2ccccc2)nc2c(N(CCOC)CCOC)nc(C)nc21
AC50 (Cytochrome P450 3A4): 20 µM (inconclusive)

C[C@H](O)[C@@H]1C(=O)N2CCc3c([nH]c4ccccc34)[C@@H]2C[C@@H]1N(C)C(=O)c1cc(Cl)cc(Cl)c1
EC50 (Kallikrein-7): > 23.2 µM (inactive)

CNc1cncc(-c2ccc(OC)cc2)n1
EC50 (Kallikrein-7): > 69.5 µM (inactive)

COCCNC(=O)C[C@@H]1CC[C@H]2[C@@H](COC[C@H](O)CN2Cc2cccc(-c3ccncc3)c2)O1
AC50 [19]: 32.6 µM (active)
AC50 (HEK293): 32.6 µM (active)

C[C@@H]1CN([C@@H](C)CO)S(=O)(=O)c2ccc(C3=CCCC3)cc2O[C@@H]1CN(C)Cc1ccccc1F
AC50 [19]: 23.9 µM (active)
AC50 (HEK293): 23.9 µM (active)

CCCCN1CCCCC1C(=O)Nc1c(C)cccc1C (centres undefined) [BUPIVACAINE]
AC50 [19]: 35.7 µM (active)
AC50 (HEK293): 35.7 µM (active)
